US11135309B2, “Poly(vinyl alcohol) nanocarriers” (THE REGENTS OF THE UNIVERSITY OF CALIFORNIA, priority 2015, dated 2021)
Each block holds one compound with its values, some of them ahead of it.

Key:
[1] = cumulative BTZ release in PBS medium; format: physicochemical; details: PBS pH 7.4, within the first 3 h
[2] = serum chemistry (hepatic and renal function panel) in the therapeutic study; format: in vivo, mice; details: day 7 after the last dosage
Experimental: (§1) Tumor bearing mice (n=6-8) were intravenously administered PBS; Velcade® (0.8 mg/kg); BTZ-PVA (0.8, 1.2 mg/kg); DOX (4 mg/kg); DOX-DCMs (4 mg/kg); BTZ 0.8 mg/kg followed by DOX 4 mg/kg 24 h later; or BTZ-PVA 0.8 mg/kg followed by DOX-DCMs 24 h later every four days for a total of 6 doses. Data represent mean±SEM.

[3] = blood cell count after the last dosage in the therapeutic study; format: in vivo, mice
Experimental: as §1

[4] = test system: subcutaneous SKOV-3 tumor; test: phototherapy and tumor response; format: in vivo, mice
Experimental: Phototherapy and tumor response. Subcutaneous SKOV-3 tumor-bearing mice were used for in vivo therapeutic study when tumor volumes reached 80-120 mm^3 (designate as Day 0). The therapeutic efficacy and toxicity profiles of different PPNs formulations were evaluated. On day 0, all mice were randomly divided into seven groups (n=6). […] The DOX was given at the dose of 2.5 mg/kg, and PPNs was given at the dose of 2 mg/kg, calculated on the porphyrin content. The treatment was given every 5 days on day 0, 5, 10 and 15 for a total 4 doses. […] Tumor size and body weight were measured twice a week. Tumor volume was calculated using the equation (L×W^2)/2, where L is the longest and W is shortest in tumor diameters (mm). For humane reasons, mice were sacrificed when tumor volume reached 1000 mm^3, which was considered as the end point of survival data.

[5] = test system: SKOV-3 ovarian cancer cells; test: cellular uptake (flow cytometry, confocal microscopy); format: cell-based
Experimental: The uptake profiles of DOX-loaded PPNs in SKOV-3 ovarian cancer cells were qualitatively observed by confocal microscopy. SKOV-3 cells were seeded in an 8-well slide. […] Then the cells were washed thrice with PBS buffer, fixed with 4% paraformaldehyde for 15 min. The nuclei were stained with DAPI. The slides were mounted with coverslips and observed by confocal microscopy.
The cellular uptake efficiency of PPNs in SKOV3 ovarian cancer cells was quantified with flow cytometry at different incubation time points (FIG. 19a). […] Additionally, a marked increase in porphyrin fluorescence from PPNs was visualized in the cytoplasm at 6 hrs, compared to that at 30 min after incubation.

[6] = in vitro DOX release from PVA-LA NPs by dialysis; format: physicochemical; details: PBS, within 1 h
Experimental: Drug release study. DOX-loaded Cr-PVA-LA NPs solution was prepared to determine the in vitro drug release profile. The initial DOX concentration was 1.0 mg/mL, Aliquots of the DOX-loaded Cr-PVA-LA NPs solution were injected into dialysis cartridges with 3.5 kDa MWCO. The cartridges were dialyzed against 100 volume times PBS solution at 37° C. and rotator rate was set to 100 rpm. […] Values were reported as the means for each triplicate samples.
Loading and Triggered Release of DOX. […] The accumulated release results shown in FIG. 14 represent the total amount of DOX released from different sample. […] More than 50% of DOX were release within 1 h. […] It should be further noted that no burst release was observed even in the presence of NAC. The unique core-shell structure contributes to the constant release rate. This biodegradable PVA-LA NPs is a highly promising approach to controlled drug release.

[7] = test system: subcutaneous MDA-MB-231 breast cancer xenografts; test: in vivo therapeutic study, breast cancer xenograft; parameters: species or system nude mice; details: 5 mg/kg intravenous, every four day, 6 doses
Experimental: In vivo therapeutic study. Subcutaneous MDA-MB-231 breast cancer xenografts were implanted into nude mice as described above. […] On day 0, these mice were randomly divided into three groups, with five mice in each group. […] Tumor volume was calculated by the formula (L×W^2)/2, where L is the longest and W is the shortest in tumor diameters(mm). Anti-tumor efficacy in breast cancer xenograft mouse mode The anti-tumor effects of DOX-PVA-LA NPs after intravenous injection were evaluated in subcutaneous MDA-MB-231 tumor bearing mice.

[8] = in vivo toxicity evaluation; parameters: species or system mice; details: 5 days after the last dose
Experimental: Phototherapy and tumor response. Subcutaneous SKOV-3 tumor-bearing mice were used for in vivo therapeutic study when tumor volumes reached 80-120 mm^3 (designate as Day 0). The therapeutic efficacy and toxicity profiles of different PPNs formulations were evaluated. On day 0, all mice were randomly divided into seven groups (n=6). Mice were intravenously administered with PBS, blank PPNs, DOX·HCl and PPNs-DOX. The DOX was given at the dose of 2.5 mg/kg, and PPNs was given at the dose of 2 mg/kg, calculated on the porphyrin content. The treatment was given every 5 days on day 0, 5, 10 and 15 for a total 4 doses. […] Tumor size and body weight were measured twice a week. Tumor volume was calculated using the equation (L×W^2)/2, where L is the longest and W is shortest in tumor diameters (mm). For humane reasons, mice were sacrificed when tumor volume reached 1000 mm^3, which was considered as the end point of survival data. At day 5 after the last dosage, blood samples were collected from each group to test blood cell counts and serum chemistry.
In vivo toxicity evaluation. The potential toxicity of PPNs and the related formulations was assessed in all treated mice. The body weight change, blood cell counts and serum chemistry including renal and hepatic function panels were monitored. […]

[9] = in vitro DOX release from PPNs by dialysis; format: physicochemical; details: PBS 37° C., within the first 5 hrs
Experimental: In vitro drug release profiles were carried out using the dialysis method. Aliquots of DOX-loaded PPNs solution were injected into a dialysis cartridge with a molecular weight cutoff of 3.5 kDa. The whole dialysis process was carried out at 37° C. with swirling at 70 rpm in the presence of 10 g/L activated charcoal in 1 L PBS buffer. The concentration of DOX remained in the dialysis cartridge at various time points was determined by absorbance measurement.

- BTZ released [1]: about 80%
- BUN ([2]; 0.8 mg/kg): 16.3 ± 2.1 mg/dL
- Creatinine ([2]; 0.8 mg/kg): 0.2 ± 0.1 mg/dL
- Total Bilirubin ([2]; 0.8 mg/kg): 0.1 ± 0.0 mg/dL
- Hemoglobin ([3]; 0.8 mg/kg): 14.6 ± 0.6 g/dL
- Neutrophil cells ([3]; 0.8 mg/kg): 0.5 ± 0.4 K/μl
- Platelets ([3]; 0.8 mg/kg): 1424.3 ± 146.2 K/μL
- RBC ([3]; 0.8 mg/kg): 9.2 ± 0.5 M/μl
- WBC ([3]; 0.8 mg/kg): 5.6 ± 1.3 K/μl
Structure (SMILES): CC(C)C[C@H](NC(=O)[C@H](Cc1ccccc1)NC(=O)c1cnccn1)B(O)O [BTZ, [(1R)-3-methyl-1-({(2S)-3-phenyl-2-[(pyrazin-2-ylcarbonyl)amino]propanoyl}amino)butyl] boronic acid]
- ALT ([2]; 0.8 mg/kg): 28.3 ± 3.3 U/L
- AST ([2]; 0.8 mg/kg): 117.1 ± 26.4 U/L

Structure (SMILES): COc1cccc2c1C(=O)c1c(O)c3c(c(O)c1C2=O)C[C@@](O)(C(=O)CO)C[C@@H]3O[C@H]1C[C@H](N)[C@H](O)[C@H](C)O1 [DOX, doxorubicin]
- tumor growth compared to PBS control ([4]; DOX 2.5 mg/kg iv days 0, 5, 10, 15, without light): did not exhibit obvious antitumor effect
- survival compared to PBS control ([4]; without light): no obvious prolonged survival rate
- intracellular localization of DOX fluorescence ([5]; 30 min incubation): could be observed in the nuclei
- intracellular localization of DOX fluorescence ([5]; 6 hrs incubation): completely transported into the nuclei
- DOX released [6]: More than 50%
- anti-tumor activity compared with PBS control [7]: significant anti-tumor activity
- ALT ([2]; 4 mg/kg): 42.6 ± 8.6 U/L
- AST ([2]; 4 mg/kg): 167.7 ± 23.4 U/L
- BUN ([2]; 4 mg/kg): 18.0 ± 2.6 mg/dL
- Creatinine ([2]; 4 mg/kg): 0.2 ± 0.0 mg/dL
- Total Bilirubin ([2]; 4 mg/kg): 0.1 ± 0.0 mg/dL
- white blood cell counts [8]: certain decrease
- Hemoglobin ([3]; 4 mg/kg): 13.6 ± 0.9 g/dL
- Neutrophil cells ([3]; 4 mg/kg): 0.5 ± 0.2 K/μl
- Platelets ([3]; 4 mg/kg): 1618.2 ± 190.5 K/μL
- RBC ([3]; 4 mg/kg): 8.3 ± 0.5 M/μl
- WBC ([3]; 4 mg/kg): 5.8 ± 1.0 K/μl
- DOX released [9]: 90%
